Test results published in patent US11198713B2, “Agents modulating beta-catenin functions and methods thereof” (FOG PHARMACEUTICALS, INC., priority 2017, dated 2021).
Numbered stars: 1 amine (or outer) side, 2 acyl side, 3 side chain; on linkers, the order of the positions; unused ones are H or OH. Bridge positions count the residues as written; N and C are the ends. Square brackets hold non-standard residues; d marks the D form. Peptide text beside a SMILES is read from it. 3Aminoazetidine3carboxyl = O=C(C1(N[*:1])CN([*:3])C1)[*:2]; dαMeOrn(Me) = CN(CCC[C@@](C)(N[*:1])C(=O)[*:2])[*:3]; dαMeDab(Me) = CN(CC[C@@](C)(N[*:1])C(=O)[*:2])[*:3]; dαMeDap(Me) = CN(C[C@@](C)(N[*:1])C(=O)[*:2])[*:3]; αMeDab(Me) = CN(CC[C@](C)(N[*:1])C(=O)[*:2])[*:3]; X12 = CN(CC=[*:3])CCC[C@@](C)(N[*:1])C(=O)[*:2]; X13 = C[C@@](CCCCC=[*:3])(N[*:1])C(=O)[*:2]; X3 = O=C([C@@]1(N[*:1])CCN([*:3])C1)[*:2]; X1 = O=C([C@]1(N[*:1])CCN([*:3])C1)[*:2]; X2 = O=C(OCC=CCOC(=O)[*:2])[*:1]; S5 = C=CCCC[C@](C)(N)C(=O)O

Molecular target: T1, full-length beta-catenin (Axin site) (Homo sapiens, UniProt P35222)
T1 construct: 15 nM full-length beta-catenin, 20 nM FITC labeled peptide in buffer
T1 sequence (P35222 1-781): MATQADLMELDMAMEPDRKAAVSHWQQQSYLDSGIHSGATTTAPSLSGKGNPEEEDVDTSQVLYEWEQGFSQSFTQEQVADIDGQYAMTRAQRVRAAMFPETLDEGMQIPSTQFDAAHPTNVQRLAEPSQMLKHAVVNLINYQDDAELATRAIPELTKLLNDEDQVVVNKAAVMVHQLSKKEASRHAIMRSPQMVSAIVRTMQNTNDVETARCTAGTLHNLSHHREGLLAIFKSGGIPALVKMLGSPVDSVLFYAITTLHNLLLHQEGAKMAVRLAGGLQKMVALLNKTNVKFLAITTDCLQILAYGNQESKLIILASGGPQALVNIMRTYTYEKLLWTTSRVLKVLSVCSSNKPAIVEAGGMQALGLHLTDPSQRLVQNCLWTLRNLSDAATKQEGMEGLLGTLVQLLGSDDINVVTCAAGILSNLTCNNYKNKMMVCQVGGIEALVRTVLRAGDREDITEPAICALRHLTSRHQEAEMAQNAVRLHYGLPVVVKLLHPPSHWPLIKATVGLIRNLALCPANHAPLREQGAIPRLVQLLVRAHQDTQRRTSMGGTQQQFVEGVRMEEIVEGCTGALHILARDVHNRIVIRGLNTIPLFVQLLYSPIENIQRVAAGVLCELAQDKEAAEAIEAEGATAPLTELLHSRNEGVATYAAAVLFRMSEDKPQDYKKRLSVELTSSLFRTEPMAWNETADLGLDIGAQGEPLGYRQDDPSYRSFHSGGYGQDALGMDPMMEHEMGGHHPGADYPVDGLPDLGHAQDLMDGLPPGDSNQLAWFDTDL
Test: Competition fluorescence polarization assay (Axin site probe)
Type: binding
Conditions: competition fluorescence polarization, Table 2; read-out: in vitro FP EC50
In short: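 Competition FP: 15 nM full-length β-catenin pre-incubated 5 min with 20 nM FITC-labelled stapled Axin-site peptide, then titrated peptide added (3-fold series from 5 μM) for 15 min in the dark. Buffer 50 mM Tris pH 8.0, 250 mM NaCl, 2% glycerol, 0.5 mM EDTA; duplicate reads.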

Structure (SMILES)	EC50
CC[C@H](C)[C@@H]1NC(=O)[C@H](Cc2cccs2)NC(=O)[C@H](C)NC(=O)[C@H](CC(=O)O)NC(=O)[C@H](CC(C)C)NC(=O)[C@H]([C@@H](C)CC)NC(=O)[C@](C)(NC(=O)[C@H](C)NC(C)=O)CCCCCCC=CCOC(=O)N2CC[C@@](C(=O)N[C@@H](CCCNC(=N)N)C(=O)N[C@H](C(=O)N[C@@H](Cc3c[nH]c4ccccc34)C(N)=O)C(C)C)(C2)NC1=O [FP0536c, Ac-A-R8-I-L-D-A-thi-I-MB-R-V-W-NH2]	> 5000 nM
CC[C@H](C)[C@@H]1NC(=O)[C@H](Cc2cccnc2)NC(=O)[C@H](C)NC(=O)[C@H](CC(=O)O)NC(=O)[C@H](CC(C)C)NC(=O)[C@H]([C@@H](C)CC)NC(=O)[C@](C)(NC(=O)[C@H](C)NC(C)=O)CCCCCCC=CCOC(=O)N2CC[C@@](C(=O)N[C@@H](CCCNC(=N)N)C(=O)N[C@H](C(=O)N[C@@H](Cc3c[nH]c4ccccc34)C(N)=O)C(C)C)(C2)NC1=O [FP0537c, Ac-A-R8-I-L-D-A-3pyr-I-MB-R-V-W-NH2]	> 5000 nM
CC[C@H](C)[C@@H]1NC(=O)[C@H](Cc2ccncc2)NC(=O)[C@H](C)NC(=O)[C@H](CC(=O)O)NC(=O)[C@H](CC(C)C)NC(=O)[C@H]([C@@H](C)CC)NC(=O)[C@](C)(NC(=O)[C@H](C)NC(C)=O)CCCCCCC=CCOC(=O)N2CC[C@@](C(=O)N[C@@H](CCCNC(=N)N)C(=O)N[C@H](C(=O)N[C@@H](Cc3c[nH]c4ccccc34)C(N)=O)C(C)C)(C2)NC1=O [FP0538c, Ac-A-R8-I-L-D-A-4pyr-I-MB-R-V-W-NH2]	500 to 5000 nM
CC[C@H](C)[C@@H]1NC(=O)[C@H](Cc2ccccc2)NC(=O)[C@H](C)NC(=O)[C@H](CC(=O)O)NC(=O)[C@H](CC(C)C)NC(=O)[C@H]([C@@H](C)CC)NC(=O)[C@](C)(NC(=O)[C@H](C)NC(C)=O)CCCCCCC=CCOC(=O)N2CC[C@@](C(=O)N[C@@H](CCCNC(=N)N)C(=O)N[C@H](C(=O)N[C@@H](Cc3c[nH]c4ccccc34)C(N)=O)C(C)C)(C2)NC1=O [FP0540c, Ac-A-R8-I-L-D-A-F-I-MB-R-V-W-NH2]	> 5000 nM
CC[C@H](C)[C@@H]1NC(=O)[C@H](Cc2ccco2)NC(=O)[C@H](C)NC(=O)[C@H](CC(=O)O)NC(=O)[C@H](CC(C)C)NC(=O)[C@H]([C@@H](C)CC)NC(=O)[C@](C)(NC(=O)[C@H](C)NC(C)=O)CCCCCCC=CCOC(=O)N2CC[C@@](C(=O)N[C@@H](CCCNC(=N)N)C(=O)N[C@H](C(=O)N[C@@H](Cc3c[nH]c4ccccc34)C(N)=O)C(C)C)(C2)NC1=O [FP0541c, Ac-A-R8-I-L-D-A-fur-I-MB-R-V-W-NH2]	> 5000 nM
CC[C@H](C)[C@@H]1NC(=O)[C@H](Cc2c[nH]cn2)NC(=O)[C@H](C)NC(=O)[C@H](CC(=O)O)NC(=O)[C@H](CC(C)C)NC(=O)[C@H]([C@@H](C)CC)NC(=O)[C@](C)(NC(=O)[C@H](C)NC(C)=O)CCCCCCC=CCOC(=O)N2CC[C@@](C(=O)N[C@@H](CO)C(=O)N[C@H](C(=O)N[C@@H](Cc3c[nH]c4ccccc34)C(N)=O)C(C)C)(C2)NC1=O [FP0542c, Ac-A-R8-I-L-D-A-H-I-MB-S-V-W-NH2]	500 to 5000 nM
CC[C@H](C)[C@@H]1NC(=O)[C@H](Cc2c[nH]cn2)NC(=O)[C@H](C)NC(=O)[C@H](CC(=O)O)NC(=O)[C@H](CC(C)C)NC(=O)[C@H]([C@@H](C)CC)NC(=O)[C@](C)(NC(=O)[C@H](C)NC(C)=O)CCN(C)C(=O)OCC=CCOC(=O)N(C)C[C@](C)(C(=O)N[C@@H](CCCNC(=N)N)C(=O)N[C@H](C(=O)N[C@@H](Cc2c[nH]c3ccccc23)C(N)=O)C(C)C)NC1=O [FP0596c, Ac-A-MG-I-L-D-A-H-I-ME-R-V-W-NH2] (Ac-A[dαMeDab(Me)]ILDAHI[dαMeDap(Me)]RVW-NH2; linker 2-9 via X2)	500 to 5000 nM

Results, then the compound that gave them:

EC50	Structure (SMILES)
500 to 5000 nM	CC[C@H](C)[C@@H]1NC(=O)[C@H](Cc2c[nH]cn2)NC(=O)[C@H](C)NC(=O)[C@H](CC(=O)O)NC(=O)[C@H](CC(C)C)NC(=O)[C@H]([C@@H](C)CC)NC(=O)[C@](C)(NC(=O)[C@H](C)NC(C)=O)CCCN(C)CC=CCCC[C@@](C)(C(=O)N[C@@H](CCCNC(=N)N)C(=O)N[C@H](C(=O)N[C@@H](Cc2c[nH]c3ccccc23)C(N)=O)C(C)C)NC1=O [FP0506a, Ac-A-MI-I-L-D-A-H-I-S5-R-V-W-NH2] (Ac-A[X12]ILDAHI[S5]RVW-NH2; staple 2-9)
< 100 nM	CC[C@H](C)[C@@H]1NC(=O)[C@H](Cc2c[nH]cn2)NC(=O)[C@H](C)NC(=O)[C@H](CC(=O)O)NC(=O)[C@H](CC(C)C)NC(=O)[C@H]([C@@H](C)CC)NC(=O)[C@](C)(NC(=O)[C@H](C)NC(C)=O)CCCN(C)CC=CCCCC[C@@](C)(C(=O)N[C@@H](CCCNC(=N)N)C(=O)N[C@H](C(=O)N[C@@H](Cc2c[nH]c3ccccc23)C(N)=O)C(C)C)NC1=O [FP0507a, Ac-A-MI-I-L-D-A-H-I-S6-R-V-W-NH2] (Ac-A[X12]ILDAHI[X13]RVW-NH2; staple 2-9)
500 to 5000 nM	CC[C@H](C)[C@@H]1NC(=O)[C@H](Cc2c[nH]cn2)NC(=O)[C@H](C)NC(=O)[C@H](CC(=O)O)NC(=O)[C@H](CC(C)C)NC(=O)[C@H]([C@@H](C)CC)NC(=O)[C@](C)(NC(=O)[C@H](C)NC(C)=O)CCCN(C)C(=O)OCC=CCCCC[C@@](C)(C(=O)N[C@@H](CCCNC(=N)N)C(=O)N[C@H](C(=O)N[C@@H](Cc2c[nH]c3ccccc23)C(N)=O)C(C)C)NC1=O [FP0507c, Ac-A-MI-I-L-D-A-H-I-S6-R-V-W-NH2]
100 to 500 nM	CC[C@H](C)[C@@H]1NC(=O)[C@H](Cc2c[nH]cn2)NC(=O)[C@H](C)NC(=O)[C@H](CC(=O)O)NC(=O)[C@H](CC(C)C)NC(=O)[C@H]([C@@H](C)CC)NC(=O)[C@](C)(NC(=O)[C@H](C)NC(C)=O)CCCCCC=CCOC(=O)N2CC(C(=O)N[C@@H](CCCNC(=N)N)C(=O)N[C@H](C(=O)N[C@@H](Cc3c[nH]c4ccccc34)C(N)=O)C(C)C)(C2)NC1=O [FP0516c, Ac-A-R7-I-L-D-A-H-I-MA-R-V-W-NH2]
< 100 nM	CC[C@H](C)[C@@H]1NC(=O)[C@H](Cc2c[nH]cn2)NC(=O)[C@H](C)NC(=O)[C@H](CC(=O)O)NC(=O)[C@H](CC(C)C)NC(=O)[C@H]([C@@H](C)CC)NC(=O)[C@](C)(NC(=O)[C@H](C)NC(C)=O)CCCN(C)C(=O)OCC=CCOC(=O)N(C)CC[C@@](C)(C(=O)N[C@@H](CCCNC(=N)N)C(=O)N[C@H](C(=O)N[C@@H](Cc2c[nH]c3ccccc23)C(N)=O)C(C)C)NC1=O [FP0587c, Ac-A-MI-I-L-D-A-H-I-MF-R-V-W-NH2] (Ac-A[dαMeOrn(Me)]ILDAHI[αMeDab(Me)]RVW-NH2; linker 2-9 via X2)
< 100 nM	CC[C@H](C)[C@@H]1NC(=O)[C@H](Cc2c[nH]cn2)NC(=O)[C@H](C)NC(=O)[C@H](CC(=O)O)NC(=O)[C@H](CC(C)C)NC(=O)[C@H]([C@@H](C)CC)NC(=O)[C@](C)(NC(=O)[C@H](C)NC(C)=O)CN(C)C(=O)OCC=CCOC(=O)N(C)CC[C@@](C)(C(=O)N[C@@H](CCCNC(=N)N)C(=O)N[C@H](C(=O)N[C@@H](Cc2c[nH]c3ccccc23)C(N)=O)C(C)C)NC1=O [FP0601c, Ac-A-ME-I-L-D-A-H-I-MF-R-V-W-NH2] (Ac-A[dαMeDap(Me)]ILDAHI[αMeDab(Me)]RVW-NH2; linker 2-9 via X2)
< 100 nM	CC[C@H](C)[C@@H]1NC(=O)[C@H](Cc2c[nH]cn2)NC(=O)[C@H](C)NC(=O)[C@H](CC(=O)O)NC(=O)[C@H](CC(C)C)NC(=O)[C@H]([C@@H](C)CC)NC(=O)[C@](C)(NC(=O)[C@H](C)NC(C)=O)CN(C)C(=O)OCC=CCOC(=O)N2CC[C@@](C(=O)N[C@@H](CCCNC(=N)N)C(=O)N[C@H](C(=O)N[C@@H](Cc3c[nH]c4ccccc34)C(N)=O)C(C)C)(C2)NC1=O [FP0604c, Ac-A-ME-I-L-D-A-H-I-MB-R-V-W-NH2] (Ac-A[dαMeDap(Me)]ILDAHI[X1]RVW-NH2; linker 2-9 via X2)
< 100 nM	CC[C@H](C)[C@@H]1NC(=O)[C@H](Cc2c[nH]cn2)NC(=O)[C@H](C)NC(=O)[C@H](CC(=O)O)NC(=O)[C@H](CC(C)C)NC(=O)[C@H]([C@@H](C)CC)NC(=O)[C@](C)(NC(=O)[C@H](C)NC(C)=O)CN(C)C(=O)OCC=CCOC(=O)N2CC[C@](C(=O)N[C@@H](CCCNC(=N)N)C(=O)N[C@H](C(=O)N[C@@H](Cc3c[nH]c4ccccc34)C(N)=O)C(C)C)(C2)NC1=O [FP0605c, Ac-A-ME-I-L-D-A-H-I-MC-R-V-W-NH2] (Ac-A[dαMeDap(Me)]ILDAHI[X3]RVW-NH2; linker 2-9 via X2)
< 100 nM	CC[C@H](C)[C@@H]1NC(=O)[C@H](Cc2c[nH]cn2)NC(=O)[C@H](C)NC(=O)[C@H](CC(=O)O)NC(=O)[C@H](CC(C)C)NC(=O)[C@H]([C@@H](C)CC)NC(=O)C2(NC(=O)[C@H](C)NC(C)=O)CN(C2)C(=O)OCC=CCOC(=O)N(C)CC[C@@](C)(C(=O)N[C@@H](CCCNC(=N)N)C(=O)N[C@H](C(=O)N[C@@H](Cc2c[nH]c3ccccc23)C(N)=O)C(C)C)NC1=O [FP0611c, Ac-A-MA-I-L-D-A-H-I-MF-R-V-W-NH2] (Ac-A[3Aminoazetidine3carboxyl]ILDAHI[αMeDab(Me)]RVW-NH2; linker 2-9 via X2)
